# Results reported in patent publication US9709557B2, “Anthraquinone based near IR emitting compounds and uses thereof” (LIFE TECHNOLOGIES CORPORATION, priority 2008, dated 2017).
# What was measured:
# Live Jurkat cells [1] = test: Comparison of DNA stains on cell viability (Example 44); type: cell-based; settings: human, 72 h, 5 μM
# Procedure: Live Jurkat cells are suspended at 5×10^5 cells/ml in complete RPMI media with 10% FBS. Four aliquots of 10 ml each of the cell suspension are made. A final concentration of 5 μM Hoechst 33342 (Invitrogen Corporation) is added to one aliquot, a final concentration of 5 μM DRAQ5 (Biostatus Limited, UK) is added to one aliquot, a final concentration of 5 μM Compound 9 is added to one aliquot, and one aliquot remains untreated as a control. All four aliquots are placed in a 37° C. waterbath for 30 minutes in protected from light. After the incubation, all cell suspensions are centrifuged, the cells are pelleted and the supernatant discarded. To each aliquot, 5 ml media is added. Four culture flasks are prepared by adding 35 ml media to each. One 5 ml aliquot of cells is added to one flask for each on the four cell suspensions aliquots. The flasks are placed in a 37° C. incubator with 5% CO2 in the dark for 72 hours. Each flask of cells is then gently mixed and cell suspension is removed for testing. The cell concentration and image is performed using the Cellometer instrument from Nexcelom. Percentage and absolute cell counts of live and dead cells for each treatment are determined using the LIVE/DEAD Viability/Cytotoxicity Kit (Invitrogen Corporation, Carlsbad, Calif.) with COUNTBRIGHT Absolute Counting Beads (Invitrogen Corporation). This involves adding one ml cell suspension to a 12×75 mm test tube and adding 2 μl of a 50 μM calcein AM solution to identify living cells and 4 μl of a 2 mM ethidium homodimer-1 solution to identify dead cells. The cell suspension is mixed and incubated for 20 minutes at room temperature protected from light. After the end of the incubation, 50 μl of well mixed COUNTBRIGHT absolute counting beads are added to each test tube. Each sample is run through the Becton Dickinson (BD) LSRII Flow Cytometer. Forward Scatter (FS) versus Side Scatter (SS) dual parameter plot is used to gate main cell population, and a separate gate is made around the bead population. Fluorescence is collected using 488 nm excitation laser with 530/30 bandpass and 610/20 bandpass emission filters. Markers on a dual parameter plot of calcein fluorescence versus ethidium homodimer-1 fluorescence is used to obtain percent of cells which are living and dead, as well as number of cell events recorded. By using the COUNTBRIGHT absolute counting beads assay, the absolute number of living and dead cells is calculated by using the equation: A/B×C/D=concentration of cells/μL (A=number of cell events, B=number of bead events, C=assigned bead count, D=volume of the sample in μl).
# Live Jurkat cells [2] = test: Evaluation of cell health after DNA staining, ImageStream imaging flow cytometer (Example 39); type: cell-based; settings: 5 μM, 37° C., 30 min
# Source text: An ImageStream multispectral imaging flow cytometer is used to evaluate the live, apoptotic and mitotic rate of cycling Jurkat cells labeled with a compound of the invention (e.g., Compound 9 or a salt thereof). The platform produces high resolution brightfield, darkfield, and fluorescence images of cells prepared in suspension. IDEA analysis software I is used to quantify morphometric and photometric parameters for each cell based on the imaged collected. This technology combines the quantitative power of large sample sizes common to flow cytometry with the high information content present in microscopic images.
# Live Jurkat cells are suspended at 5×10^5 cells/ml in each RPMI media with 10% FBS. The compound (in 5 mM DMSO) is added at a concentration of 5 μM and then the cells are incubated at 37° C. for 30 minutes while protected from light before acquiring on the ImageStream cytometer using 658 nm excitation and >660 nm emission. Apoptotic, mitotic, and interphase Jurkat cells are distinguished from each other using a combination of scatter, DNA intensity, and morphology-based parameters. Apoptotic cells with high laser scatter properties are gated on the Mean Pixel SSC histogram. Low scatter apoptotic events with low DNA content or textured nuclei are identified on the dye intensity versus bright detail intensity plot. […]
# Live Jurkat cells [3] = test: DNA staining of live cells treated with RNase (Example 37); type: cell-based, human; settings: 5 μM and 10 μM, 37° C. or room temperature, 30 min
# Procedure: Live Jurkat cells (human T-lymphocyte) were stained with Compound 9 with and without RNase treatment to assess DNA selectivity of the compound. Live Jurkat cells were suspended at 5×10^5 cells/ml in each RPMI media with 10% FBS. The dye was added to each of one mL cell suspensions at concentrations 5 μM and 10 μM. Duplicate conditions (dye concentration and incubation temperature) were tested. RNase was added to one test and incubated along with the dye. The other test was left untreated (no RNase present). The samples were incubated at 37° C. or room temperature for 30 minutes while protected from light. Cells were run through a Becton Dickinson (BD) LSRII Flow Cytometer, as described in Example 36.
# [4] = test system: Jurkat cells fixed in 70% cold ethanol; test: Staining of fixed cells, DNA content cell cycle by flow cytometry (Example 41); type: cell-based, human; settings: 5 μM, PBS, room temperature 30 min
# Procedure: Live Jurkat cells are fixed 70% cold ethanol and stored at −20° C. for one month. The cells are the washed in phosphate buffered saline (PBS) and resuspended in PBS at 5×10^5 cells/ml. Cells are labeled with a 5 μM solution of a compound according to the invention (e.g., Compound 9 or a salt thereof) at room temperature for 30 minutes and then run through two flow cytometers: A BD LSRII using 488 nm excitation and 695/40 nm emission and an Accuri C6 using 488 nm excitation and >670 nm emission, collecting 10,000 events at low flow rate. Markers are placed on the G0G1 and G2M peaks to look at % CV of the G0G1 peak and the ratio of G2M/G0G1.
# [5] = Accuri C6, 488 nm excitation, >670 nm
# [6] = BD LSRII, 488 nm excitation, 695/40
smiles,measurement,setting,value
CN(C)CCNC(=O)CNc1ccc(O)c2c1C(=O)c1c(O)ccc(N)c1C2=O [Compound 9],% Dead Cells,Live Jurkat cells [1],26.4%
same,% Living Cells,Live Jurkat cells [1],71.2%
same,Cell Count (Cellometer),Live Jurkat cells [1],2.54 × 10^5 cells/mL
same,Cell Count (Flow Cytommetry),Live Jurkat cells [1],0.7 × 10^5 cells/mL
same,cells dead following incubation with the dye,Live Jurkat cells [2],7.1%
same,mitotic cells as share of the live cell population,Live Jurkat cells [2],1.9%
same,"DNA selectivity, staining with and without RNase",Live Jurkat cells [3],DNA selective
same,% CV of the G0G1 peak,[4]; [5],5.9%
same,ratio of G2M/G0G1,[4]; [5],1.85
same,% CV of the G0G1 peak,[4]; [6],6.0%
same,ratio of G2M/G0G1,[4]; [6],1.83
